Measurements as given in PubChem BioAssay AID1963965 (Molecular Pharmacology Branch, DTP, NCI, 2024).

System: 996289-038-R-J1-PDC spheroid viability
Experiment: Anticancer human tumor 996289-038-R-J1-PDC patient-derived colon adenocarcinoma cell line growth inhibition [PI3K]
Settings: spheroids with HUVEC and MSC; for IC50: curve of first compound; for viability, T/C: stronger effect = lower value; active = viability on the fitted dose curve at most 10% of control; inactive = the rest
Description: Combinatorial screen of targeted agents with the PI3K inhibitors inavolisib, alpelisib, duvelisib, and copanlisib in multi-cell type tumor spheroids
A high-throughput screen of multi-cell type tumor spheroids was designed to identify active combinations of targeted small molecules and PI3K pathway inhibitors. Complex spheroids include a stromal component modeled by human endothelial cells (HUVEC) and fibroblasts modeled by human mesenchymal stem cells (MSCs). The concentration ranges selected for each drug and investigational agent were based upon clinically achievable concentrations if the clinical Cmax of the agent was known.
Compounds. The drugs and investigational agents: inavolisib (NSC800729), alpelisib (NSC765974), duvelisib (NSC772469), copanlisib (NSC816437), ipatasertib (NSC767898), afuresertib (NSC778305), talazoparib (NSC767125), sapanisertib (NSC764658), selumetinib (NSC741078), tovorafenib (DAY101, NSC766906), vemurafenib (NSC761431), ravoxertinib (NSC781343), sotorasib (NSC818433), MRTX1133 (NSC 836407), abemaciclib (NSC 768073), palbociclib (NSC758247), venetoclax (NSC 766270), SY5609 (NSC837396), enzalutamide (NSC755605), and darolutamide (NSC825331), were obtained from the National Cancer Institute (NCI) Developmental Therapeutics Program Chemical Repository. The FDA-approved anticancer drug set is available from the NCI Developmental Therapeutics Program. […] The stock solutions were prepared in dimethyl sulfoxide (DMSO, Sigma-Aldrich, St. Louis, MO, cat. D2650) at 800-fold the tested concentration and stored at -70 degrees C prior to their use. All drugs and investigational agents were tested over a range starting from a high concentration at or near the clinical Cmax and decreasing in half-log increments. If the clinical Cmax for an agent had not been determined, the highest concentration tested was 10 microM.
Cell Culture. All cells were maintained in an incubator at 37 degrees C and 5% CO2 with 95% humidity. The PDC lines were cultured according to standard operating procedures established by the NCI PDMR (https://pdmr.cancer.gov/sops/default.htm). All PDCs were thawed and cultured in Matrigel-coated flasks prepared with a working solution of 1X Ham's F-12 nutrient mix, without supplementation (Invitrogen, Waltham, MA, cat. 11765054), 100 U/mL penicillin-streptomycin (Invitrogen, cat. 15140122), and 2.5% Matrigel (Corning Inc., Corning, NY, cat. 354248) for the first three passages. The 354836-022-R-J1-PDC, 475296-252-R-J1-PDC, and 997726-040-R-J2-PDC lines were cultured in 6A media, which includes advanced DMEM/F-12 (Thermo Fisher Scientific, cat. 12634028), 10 mM HEPES (Thermo Fisher Scientific, cat. 15630080), 1X GlutaMAX supplement (Thermo Fisher Scientific, cat. 35050061), 0.1 mg/mL primocin (InvivoGen, San Diego, CA, cat. ant-pm-2), 10% defined fetal bovine serum, heat inactivated (HyClone Laboratories Inc., Logan, UT, cat. SH30070.03HI), 50% L-WRN conditioned media (ATCC, cat. CRL-3276), 1.25 mM N-Acetyl-L-cysteine (Sigma-Aldrich, cat. A9165), 10 mM nicotinamide (Sigma-Aldrich, cat. N0636), 1X B-27 supplement (Thermo Fisher Scientific, cat. 17504044), 1X N-2 supplement (Thermo Fisher Scientific, cat. 17502048), and 10 microM Y-27632 dihydrochloride (Tocris Bioscience, Bristol, United Kingdom, cat. 1254). The 624824-186-R-J2-PDC line was cultured in 6C/Colon 1B media, which includes all 6A media components plus 50 ng/mL human EGF recombinant protein (Thermo Fisher Scientific, cat. PHG0311). […]
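Note: spheroids exposed to compounds for seven days before viability read.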
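Throughout, for viability, T/C: luminescence used as a proxy for viable cell amount; percent viability relative to DMSO vehicle control as 100%.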

Cn1cnc2c(F)c(Nc3ccc(Br)cc3Cl)c(C(=O)NOCCO)cc21 + CC(Nc1ncnc2nc[nH]c12)c1cc2cccc(Cl)c2c(=O)n1-c1ccccc1
114 nM: IC50 (second compound 10 µM)
225 nM: IC50 (second compound 0.316 µM)
166 nM: IC50 (second compound 0.1 µM)
218 nM: IC50 (second compound 1 µM)
inactive: viability, T/C (second compound 0.0316 µM, first compound 0.00949 µM) 102% | viability, T/C (second compound 0.0316 µM, first compound 0.03 µM) 77.2% | viability, T/C (second compound 0.0316 µM, first compound 0.0949 µM) 67.1% | viability, T/C (second compound 0.0316 µM, first compound 0.3 µM) 39.3% | viability, T/C (second compound 0.0316 µM, first compound 0.949 µM) 33.5% | viability, T/C (second compound 0.0316 µM, first compound 3 µM) 21.2% | viability, T/C (second compound 0.1 µM, first compound 0.00949 µM) 94.4% | viability, T/C (second compound 0.1 µM, first compound 0.03 µM) 77% | viability, T/C (second compound 0.1 µM, first compound 0.0949 µM) 54.9% | viability, T/C (second compound 0.1 µM, first compound 0.3 µM) 42.8% | viability, T/C (second compound 0.1 µM, first compound 0.949 µM) 33.5% | viability, T/C (second compound 0.1 µM, first compound 3 µM) 23.9% | viability, T/C (second compound 0.316 µM, first compound 0.00949 µM) 108% | viability, T/C (second compound 0.316 µM, first compound 0.03 µM) 79.7% | viability, T/C (second compound 0.316 µM, first compound 0.0949 µM) 62.8% | viability, T/C (second compound 0.316 µM, first compound 0.3 µM) 45.1% | viability, T/C (second compound 0.316 µM, first compound 0.949 µM) 36.4% | viability, T/C (second compound 0.316 µM, first compound 3 µM) 21.2% | viability, T/C (second compound 1 µM, first compound 0.00949 µM) 85.5% | viability, T/C (second compound 1 µM, first compound 0.03 µM) 69% | viability, T/C (second compound 1 µM, first compound 0.0949 µM) 63.6% | viability, T/C (second compound 1 µM, first compound 0.3 µM) 43.9% | viability, T/C (second compound 1 µM, first compound 0.949 µM) 33.6% | viability, T/C (second compound 1 µM, first compound 3 µM) 19.2% | viability, T/C (second compound 3.16 µM, first compound 0.00949 µM) 83.5% | viability, T/C (second compound 3.16 µM, first compound 0.03 µM) 73.7% | viability, T/C (second compound 3.16 µM, first compound 0.0949 µM) 58.9% | viability, T/C (second compound 3.16 µM, first compound 0.3 µM) 37.7% | viability, T/C (second compound 3.16 µM, first compound 0.949 µM) 31.1% | viability, T/C (second compound 3.16 µM, first compound 3 µM) 18.2% | viability, T/C (second compound 10 µM, first compound 0.00949 µM) 94.1% | viability, T/C (second compound 10 µM, first compound 0.03 µM) 68.3% | viability, T/C (second compound 10 µM, first compound 0.0949 µM) 53.9% | viability, T/C (second compound 10 µM, first compound 0.3 µM) 36.2% | viability, T/C (second compound 10 µM, first compound 0.949 µM) 27% | viability, T/C (second compound 10 µM, first compound 3 µM) 13.9%
207 nM: IC50 (second compound 0.0316 µM)
161 nM: IC50 (second compound 3.16 µM)
